According to US20030086947A1, “Vaccine against papillomatous digital dermatitis (PDD)” (TOWNSEND AND TOWNSEND AND CREW, priority 1997, published 2003):

Tests used:
[1] = tested on: lesions of papillomatous digital dermatitis (PDD); experiment: Effect of various treatments on lesions of papillomatous digital dermatitis in Holstein cows; type: in vivo; settings: for No. of cows assessed: Responded / No. of lesions assessed: Responded: complete therapeutic response, assessed at post-treatment days 7, 14 and 21, herds 5 to 7; for Mean therapeutic response time: determined by desiccation and keratinization of surfaces and absence of pain
Procedure: (§1) The effect of various treatments was assessed on a total of 72 lesions of PDD in 35 cows in […] (herds 4 and 5-7). Treatments consisted of procaine penicillin G (G. C. Hanford Manufacturing Co., Syracuse, N.Y.), 18,000 units/kg IM BID for 3 days (7 cows); ceftiofur sodium (Naxcel®, The Upjohn Co., Kalamazoo, Mich.), 2 mg/kg daily for 3 days (14 cows); oxytetracycline (Terramycin—343®Pfizer Animal Health, N.Y.), single topical application of approximately 5 g of soluble powder bandaged directly onto a clean lesion for 7 days (3 cows); formadelhyde (Fisher Scientific, Pittsburg, Pa.), 39% v/v, single topical application (5 cows); hydrochloric acid (Fisher Scientific, Pittsburg, Pa.), 36% v/v, single topical application (4 cows); surgical excision (4 cows); and chlorodifluoromethane, dimethylether (Brand Spray, Stockman Products Ltd., Castledown, Isle of Man, UK), 2 minutes of topical cryogenic spray until lesion and margin were frozen solid and white (1 cow). Two cows which received no, treatment served as untreated controls. Therapeutic response was assessed at post treatment days: 7 (4 cows), 7 and 14 (23 cows) and 7, 14 and 21 (7 cows). Therapeutic response was considered complete if there was entire transformation of moist, red, raw, prone-to-bleed, painful surfaces to dry, dark brown, firm, rubbery, keratinacious, non-painful surfaces adherent to underlying pink healthy-appearing skin. […] Another 6 lesions of PDD in 4 cows in herd 4 were reexamined 5 weeks after total surgical excision.

[2] = tested on: lesions of papillomatous digital dermatitis (PDD); experiment: Prevalence of recurrent and new PDD lesions at follow-up examination of treated cows; type: in vivo, Holstein cows; settings: for Recurrence and new-lesion development (in words): 7-12 weeks after complete response; for New: Cows n / New: Lesions n: lesion at a previously non-affected site; for New: Cows n / New: Lesions n / Recurrent: Cows n / Recurrent: Lesions n: cows that completely responded 7-12 weeks before follow-up; for Recurrent: Cows n / Recurrent: Lesions n: recurrence at a previously responsive affected site
Procedure: as §1

Compound	No. of cows assessed: Responded [1]	No. of lesions assessed: Responded [1]	Mean therapeutic response time [1] [days]	Incomplete responses, number of cows ([1]; in vivo) [cows]	Recurrence and new-lesion development (in words) [2]	New: Cows n [2]	New: Lesions n [2]	Recurrent: Cows n [2]	Recurrent: Lesions n [2]	Therapeutic response of PDD lesions (in words) ([1]; in vivo)
CO/N=C(\C(=O)N[C@@H]1C(=O)N2C(C(=O)O)=C(CSC(=O)c3ccco3)CS[C@H]12)c1csc(N)n1 [Ceftiofur IM, ceftiofur sodium]	13	41	11.1 ± 4.5	2	Recurrence and new-lesion-development were observed	2	2	4^|	6	
C=O [Formaldehyde (39%), formadelhyde]	5	8	7			0	0	0^	0	
Cl [Hydrochloric acid (35%), hydrochloric acid]	2	3	7	2	New lesions occurred	2	3	0^	0	persistence of small painful deep ulcers
CN(C)[C@@H]1C(O)=C(C(N)=O)C(=O)[C@@]2(O)C(O)=C3C(=O)c4c(O)cccc4[C@@](C)(O)[C@H]3[C@H](O)[C@@H]12 [Oxytetracycline, topical, oxytetracycline]	3	4	7							
procaine penicillin G [Penicillin G procaine IM]	7	9	8.2 ± 2.5		Recurrence and new-lesion-development were observed	2	4	1^|	1	
